Assay results published in ChEMBL document CHEMBL3352793, “Discovery of pyrrolo-benzo-1,4-diazines as potent Na(v)1.7 sodium channel blockers” (Bioorg Med Chem Lett, 2014).

How the values were obtained:
in vivo = details: rat, po, 10 mg/kg
Rattus norvegicus = species on record: Rattus norvegicus; details: in vivo, po, 10 mg/kg, 6 h
[1] = Volume of distribution at steady state in rat at 3 mg/kg, iv; type: ADME, organism-based; set-up: dose 3 mg/kg, route intravenous; details: in vivo, read-out: Vdss
[2] = Clearance in rat at 3 mg/kg, iv; type: ADME, organism-based; set-up: dose 3 mg/kg, route intravenous; details: in vivo
[3] = AUC (0 to 24 hrs) in rat at 3 mg/kg, iv; type: ADME, organism-based; set-up: time < 24 hr, dose 3 mg/kg, route intravenous; details: plasma
[4] = Oral bioavailability in rat at 10 mg/kg; type: ADME, organism-based; details: in vivo
[5] = Cmax in rat at 10 mg/kg, po; type: ADME, organism-based; set-up: dose 10 mg/kg, route oral; details: in vivo
[6] = Mean residence time in rat at 10 mg/kg, po; type: ADME, organism-based; set-up: dose 10 mg/kg, route oral; details: in vivo
[7] = Mean residence time in rat at 3 mg/kg, iv; type: ADME, organism-based; set-up: dose 3 mg/kg, route intravenous; details: in vivo
[8] = Terminal half life in rat at 3 mg/kg, iv; type: ADME, organism-based; set-up: dose 3 mg/kg, route intravenous; details: in vivo, read-out: beta t1/2 (converted)
[9] = AUC (0 to 24 hrs) in rat at 10 mg/kg, po; type: ADME, organism-based; set-up: time < 24 hr, dose 10 mg/kg, route oral; details: plasma
Brain = experiment: Drug uptake in rat brain at 10 mg/kg, po; type: ADME, organism-based; set-up: dose 10 mg/kg, route oral; details: in vivo
[10] = Tmax in rat at 10 mg/kg, po; type: ADME, organism-based; set-up: dose 10 mg/kg, route oral; details: in vivo

CN(C)c1cccc(C(=O)N2CCC3(CC2)Nc2ccccc2-n2cccc23)c1
AUC(0-t) at 6 h (in vivo; in vivo): 0.633 µM·h

COc1ccc(C(=O)N2CCC3(CC2)Nc2cc(OC)ccc2-n2cccc23)cc1
AUC(0-t) at 6 h (in vivo; in vivo): 91.5 µM·h

COc1cccc(C(=O)N2CCC3(CC2)Nc2cc(OC)ccc2-n2cccc23)c1
AUC (Rattus norvegicus): 0 µM·h

COc1ccc2c(c1)NC1(CCN(Cc3ccccc3)CC1)c1cccn1-2
AUC(0-t) at 6 h (in vivo; in vivo): 0.37 µM·h

COc1ccc2c(c1)NC1(CCN(C(=O)c3ccc(Cl)cc3)CC1)c1cccn1-2
AUC(0-t) at 6 h (in vivo; in vivo): 1.96 µM·h

N#Cc1ccc(C(=O)N2CCC3(CC2)Nc2cc(C(F)(F)F)ccc2-n2cccc23)cc1
AUC(0-t) at 6 h (in vivo; in vivo): 15.2 µM·h

COc1ccc2c(c1)NC1(CCN(C(=O)c3ccc(C#N)c(OC)c3)CC1)c1cccn1-2
AUC(0-t) at 6 h (in vivo; in vivo): 26.6 µM·h

COc1ccc2c(c1)NC1(CCN(C(=O)c3cccc(C#N)c3)CC1)c1cccn1-2
AUC(0-t) at 6 h (in vivo; in vivo): 0.783 µM·h

N#Cc1ccc(C(=O)N2CCC3(CC2)Nc2ccccc2-n2cccc23)cc1
AUC(0-t) at 6 h (in vivo; in vivo): 1.01 µM·h

N#Cc1ccc(C(=O)N2CCC3(CC2)Nc2ccc(F)cc2-n2cccc23)cc1
AUC(0-t) at 6 h (in vivo; in vivo): 12 µM·h

N#Cc1ccc(C(=O)N2CCC3(CC2)Nc2cc(Cl)ccc2-n2cccc23)cc1
AUC(0-t) at 6 h (in vivo; in vivo): 2.9 µM·h

COc1ccc2c(c1)NC1(CCN(C(=O)c3ccc(N(C)C)cc3)CC1)c1cccn1-2
AUC(0-t) at 6 h (in vivo; in vivo): 9.44 µM·h

N#Cc1ccc(C(=O)N2CCC3(CC2)Nc2ccc(Cl)cc2-n2cccc23)cc1
AUC(0-t) at 6 h (in vivo; in vivo): 26.1 µM·h

COc1ccc2c(c1)NC1(CCN(C(=O)c3ccc(OC)c(N(C)C)c3)CC1)c1cccn1-2
AUC(0-t) at 6 h (in vivo; plasma): 20.3 µM·h | Vd [1]: 1.2 L/kg | clearance [2]: 6.5 mL/min/kg | AUC(0-t) at 24 h [3]: 17.4 µM·h | bioavailability [4]: 100% | Cmax [5]: 9.3 µM | MRT [6]: 4.7 h | MRT [7]: 3 h | half-life [8]: 2.9 h | AUC(0-t) at 24 h [9]: 65.9 µM·h | Drug uptake (Brain): 257 ng/g | Tmax [10]: 1.3 h

COc1ccc2c(c1)NC1(CCN(C(=O)c3cc(C)cc(C)c3)CC1)c1cccn1-2
AUC(0-t) at 6 h (in vivo; in vivo): 0.788 µM·h

COc1ccc2c(c1)NC1(CCN(C(=O)c3cccc(Cl)c3)CC1)c1cccn1-2
AUC (Rattus norvegicus): 0 µM·h

COc1ccc2c(c1)NC1(CCN(C(=O)c3ccc(OC)c(Cl)c3)CC1)c1cccn1-2
AUC(0-t) at 6 h (in vivo; in vivo): 6.81 µM·h

COc1ccc2c(c1)NC1(CCN(C(=O)c3ccc(C)cc3)CC1)c1cccn1-2
AUC(0-t) at 6 h (in vivo; in vivo): 17.2 µM·h

COc1ccc2c(c1)NC1(CCN(C(=O)c3cccc(C)c3)CC1)c1cccn1-2
AUC (Rattus norvegicus): 0 µM·h

Cc1cc(C)cc(C(=O)N2CCC3(CC2)Nc2ccccc2-n2cccc23)c1
AUC (Rattus norvegicus): 0 µM·h

N#Cc1ccc(C(=O)N2CCC3(CC2)Nc2ccc(Br)cc2-n2cccc23)cc1
AUC(0-t) at 6 h (in vivo; in vivo): 23.4 µM·h

COc1ccc2c(c1)NC1(CCN(C(=O)c3ccc(C#N)cc3)CC1)c1cccn1-2
AUC(0-t) at 6 h (in vivo; in vivo): 51.1 µM·h

N#Cc1ccc(C(=O)N2CCC3(CC2)Nc2cc(OC(F)(F)F)ccc2-n2cccc23)cc1
AUC(0-t) at 6 h (in vivo; in vivo): 11.7 µM·h

COc1ccc2c(c1)NC1(CCN(C(=O)OCc3ccccc3)CC1)c1cccn1-2
AUC(0-t) at 6 h (in vivo; in vivo): 13.1 µM·h

COc1ccc2c(c1)NC1(CCN(C(=O)c3ccc(N(C)C)c(Cl)c3)CC1)c1cccn1-2
AUC(0-t) at 6 h (in vivo; in vivo): 1.27 µM·h

COc1ccc2c(c1)NC1(CCN(C(=O)c3ccccc3OC)CC1)c1cccn1-2
AUC (Rattus norvegicus): 0 µM·h
